These results are taken from ChEMBL document CHEMBL4396916, “Novel potent substituted 4-amino-2-thiopyrimidines as dual VEGFR-2 and BRAF kinase inhibitors” (Eur J Med Chem, 2019).

For orientation: IC50 means the concentration that gives 50% inhibition.

Test [1] concerns the target Vascular endothelial growth factor receptor 2 (Homo sapiens, UniProt P35968). Nature of the test: Inhibition of human N-terminal GST tagged VEGFR-2 expressed in baculovirus infected Sf9 cells using poly (Glu,Tyr) 4:1 as substrate in presence of ATP by Kinase-Glo luminescence assay. A general note: In Kinase-Glo more light means more ATP remaining.
The test system of the next test is RPMI-8226. The experiment in a line: Growth inhibition of human RPMI8226 cells at 10 uM incubated for 48 hrs by sulforhodamine B assay relative to control. The settings on record: RPMI-8226, 48 h, read-out: GI. The test is classed as functional. For orientation: In SRB staining, fixed cells bind dye roughly in proportion to their protein.
The next test concerns HOP-92. Nature of the test: Growth inhibition of human HOP92 cells at 10 uM incubated for 48 hrs by sulforhodamine B assay relative to control. The test is classed as functional. The settings on record: HOP-92, 48 h, read-out: GI.
A further test deals with SNB-75. The experiment in a line: Growth inhibition of human SNB75 cells at 10 uM incubated for 48 hrs by sulforhodamine B assay relative to control. The test is classed as functional. To be noted: SNB-75, 48 h, read-out: GI.
The test system of a further test is LOX IMVI. Nature of the test: Growth inhibition of human LOXIMVI cells at 10 uM incubated for 48 hrs by sulforhodamine B assay relative to control. The settings on record: read-out: GI. The test is classed as functional.
The test system of the next test is MDA-MB-435. The experiment in a line: Growth inhibition of human MDA-MB-435 cells at 10 uM incubated for 48 hrs by sulforhodamine B assay relative to control. The test is classed as functional. To be noted: MDA-MB-435, 48 h, read-out: GI.
A further test relates to SK-MEL-2. The experiment in a line: Growth inhibition of human SK-MEL-2 cells at 10 uM incubated for 48 hrs by sulforhodamine B assay relative to control. The test is classed as functional. The settings on record: SK-MEL-2, 48 h, read-out: GI.
A further test relates to OVCAR-4. The experiment in a line: Growth inhibition of human OVCAR4 cells at 10 uM incubated for 48 hrs by sulforhodamine B assay relative to control. The test is classed as functional. To be noted: OVCAR-4, 48 h, read-out: GI.
In the next test the test system is 786-0. Nature of the test: Growth inhibition of human 786-0 cells at 10 uM incubated for 48 hrs by sulforhodamine B assay relative to control. The test is classed as functional. The settings on record: 786-0, 48 h, read-out: GI.
Another test has as its system ACHN. The experiment in a line: Growth inhibition of human ACHN cells at 10 uM incubated for 48 hrs by sulforhodamine B assay relative to control. The test is classed as functional. The settings on record: read-out: GI.
In a further test the test system is RXF 393. The experiment in a line: Growth inhibition of human RXF393 cells at 10 uM incubated for 48 hrs by sulforhodamine B assay relative to control. The test is classed as functional. To be noted: RXF 393, 48 h, read-out: GI.
The test system of another test is SN12C. Nature of the test: Growth inhibition of human SN12C cells at 10 uM incubated for 48 hrs by sulforhodamine B assay relative to control. The test is classed as functional. To be noted: read-out: GI.
The test system of another test is Hs-578T. The experiment in a line: Growth inhibition of human Hs578T cells at 10 uM incubated for 48 hrs by sulforhodamine B assay relative to control. The test is classed as functional. To be noted: read-out: GI.
The subject of another test is BT-549. Nature of the test: Growth inhibition of human BT549 cells at 10 uM incubated for 48 hrs by sulforhodamine B assay relative to control. The test is classed as functional. The settings on record: BT-549, 48 h, read-out: GI.
For the next test, the system named is T47D. Nature of the test: Cytotoxicity against human T47D cells expressing wild type BRAF measured after 48 hrs by sulforhodamine B assay. The test is classed as functional, cell-based.
Another test relates to HL-60(TB). The experiment in a line: Growth inhibition of human HL-60(TB) cells at 10 uM incubated for 48 hrs by sulforhodamine B assay relative to control. The test is classed as functional. The settings on record: HL-60, 48 h, read-out: GI.
The subject of the next test is A549. Nature of the test: Growth inhibition of human A549/ATCC cells at 10 uM incubated for 48 hrs by sulforhodamine B assay relative to control. The test is classed as functional. To be noted: A549, 48 h, read-out: GI.
The test system of another test is COLO 205. Nature of the test: Growth inhibition of human COLO205 cells at 10 uM incubated for 48 hrs by sulforhodamine B assay relative to control. The test is classed as functional. To be noted: COLO 205, 48 h, read-out: GI.
For a further test, the system named is HCT-15. Nature of the test: Growth inhibition of human HCT15 cells at 10 uM incubated for 48 hrs by sulforhodamine B assay relative to control. The test is classed as functional. To be noted: HCT-15, 48 h, read-out: GI.
In a further test the test system is HT-29. The experiment in a line: Growth inhibition of human HT-29 cells at 10 uM incubated for 48 hrs by sulforhodamine B assay relative to control. The test is classed as functional. The settings on record: HT-29, 48 h, read-out: GI.
For the next test, the system named is KM12. The experiment in a line: Growth inhibition of human KM12 cells at 10 uM incubated for 48 hrs by sulforhodamine B assay relative to control. The test is classed as functional. The settings on record: KM12, 48 h, read-out: GI.
For the next test, the system named is SW-620. The experiment in a line: Growth inhibition of human SW620 cells at 10 uM incubated for 48 hrs by sulforhodamine B assay relative to control. To be noted: SW-620, 48 h, read-out: GI. The test is classed as functional.
The subject of a further test is SF-295. Nature of the test: Growth inhibition of human SF295 cells at 10 uM incubated for 48 hrs by sulforhodamine B assay relative to control. The test is classed as functional. The settings on record: SF-295, 48 h, read-out: GI.
In another test the test system is SF-539. Nature of the test: Growth inhibition of human SF539 cells at 10 uM incubated for 48 hrs by sulforhodamine B assay relative to control. The test is classed as functional. To be noted: SF-539, 48 h, read-out: GI.
Another test has as its system M14. Nature of the test: Growth inhibition of human M14 cells at 10 uM incubated for 48 hrs by sulforhodamine B assay relative to control. The test is classed as functional. To be noted: M14, 48 h, read-out: GI.
The test system of another test is IGROV-1. The experiment in a line: Growth inhibition of human IGROV1 cells at 10 uM incubated for 48 hrs by sulforhodamine B assay relative to control. The test is classed as functional. To be noted: IGROV-1, 48 h, read-out: GI.
The subject of another test is TK-10. Nature of the test: Growth inhibition of human TK10 cells at 10 uM incubated for 48 hrs by sulforhodamine B assay relative to control. The test is classed as functional. The settings on record: TK-10, 48 h, read-out: GI.

Chain of Vascular endothelial growth factor receptor 2 (P35968 whole entry): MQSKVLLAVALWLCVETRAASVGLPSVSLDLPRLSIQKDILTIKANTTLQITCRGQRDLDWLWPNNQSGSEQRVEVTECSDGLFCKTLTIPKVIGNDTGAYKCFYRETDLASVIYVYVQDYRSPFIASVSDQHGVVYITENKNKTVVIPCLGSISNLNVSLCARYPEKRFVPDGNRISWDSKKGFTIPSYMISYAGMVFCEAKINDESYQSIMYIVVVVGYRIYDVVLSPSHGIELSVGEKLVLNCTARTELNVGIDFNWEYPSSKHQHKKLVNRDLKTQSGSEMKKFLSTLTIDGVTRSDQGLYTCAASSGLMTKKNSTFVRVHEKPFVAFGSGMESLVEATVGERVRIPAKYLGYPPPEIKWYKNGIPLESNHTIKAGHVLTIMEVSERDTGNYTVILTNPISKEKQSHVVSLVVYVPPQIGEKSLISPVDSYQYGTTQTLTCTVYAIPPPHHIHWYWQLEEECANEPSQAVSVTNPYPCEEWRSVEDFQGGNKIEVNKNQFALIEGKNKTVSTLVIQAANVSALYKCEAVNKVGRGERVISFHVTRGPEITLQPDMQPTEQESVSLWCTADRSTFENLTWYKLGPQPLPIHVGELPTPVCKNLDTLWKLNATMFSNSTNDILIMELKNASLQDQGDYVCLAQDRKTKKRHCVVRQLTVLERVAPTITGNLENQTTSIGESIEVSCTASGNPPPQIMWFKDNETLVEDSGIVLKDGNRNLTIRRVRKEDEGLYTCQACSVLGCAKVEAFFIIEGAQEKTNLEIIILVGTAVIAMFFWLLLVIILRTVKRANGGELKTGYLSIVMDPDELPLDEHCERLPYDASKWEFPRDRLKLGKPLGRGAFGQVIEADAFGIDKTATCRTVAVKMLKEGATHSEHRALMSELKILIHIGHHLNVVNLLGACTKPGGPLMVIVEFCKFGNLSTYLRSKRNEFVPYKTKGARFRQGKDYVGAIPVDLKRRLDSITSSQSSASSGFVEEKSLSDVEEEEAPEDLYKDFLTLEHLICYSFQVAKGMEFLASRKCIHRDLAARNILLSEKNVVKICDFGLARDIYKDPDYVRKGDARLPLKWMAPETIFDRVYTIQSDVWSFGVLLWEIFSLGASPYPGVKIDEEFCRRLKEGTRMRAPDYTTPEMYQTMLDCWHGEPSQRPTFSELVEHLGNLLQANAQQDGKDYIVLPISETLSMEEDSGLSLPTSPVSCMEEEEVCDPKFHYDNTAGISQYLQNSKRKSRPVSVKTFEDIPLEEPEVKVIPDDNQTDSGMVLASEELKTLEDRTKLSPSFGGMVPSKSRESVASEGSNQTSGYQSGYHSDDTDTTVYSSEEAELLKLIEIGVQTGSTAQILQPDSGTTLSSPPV

Regarding `O=C(CSc1nccc(Nc2ccc(N3CCOCC3)cc2)n1)c1ccc(F)cc1`, the IC50 in test [1] came to 0.26 µM; in the test on T47D it was 14.3 µM. Moreover, the inhibition of growth at 10 µM in the test on RPMI-8226 worked out at 21%; in the test on HOP-92 it was 26%; in the test on SNB-75 it was 65%; with LOX IMVI, 15%; with MDA-MB-435, 16%; in the test on SK-MEL-2 it was 10%. Moreover, the inhibition of growth at 10 µM amounted to 57% in the test with OVCAR-4; 13% in the test on 786-0; 24% in the test with ACHN; 43% with RXF 393; 20% in the test with SN12C; 39% in the test with Hs-578T. For the same compound, the inhibition of growth at 10 µM with BT-549 was 31%.
As for `CCOC(=O)c1ccc(Nc2ccnc(SCC(=O)c3ccc(C#N)cc3)n2)cc1`, the IC50 in test [1] worked out at 0.17 µM; with T47D it was 2.18 µM. In addition, the inhibition of growth at 10 µM in the test with HL-60(TB) was determined as 24%; with RPMI-8226, 80%; in the test on A549, 39%; with COLO 205, 29%; with HCT-15 it was 24%; in the test on HT-29 it was 24%. The inhibition of growth at 10 µM is 45% in the test on KM12; 10% in the test with SW-620; 24% with SF-295; 17% in the test with SF-539; 20% in the test with LOX IMVI; 49% in the test with M14. Moreover, the inhibition of growth at 10 µM in the test on MDA-MB-435 was determined as 32%; with SK-MEL-2, 29%; in the test on IGROV-1, 21%; with OVCAR-4 it was 35%; in the test on 786-0, 22%; in the test on ACHN, 20%. The inhibition of growth at 10 µM amounted to 26% with SN12C, 10% in the test on TK-10 and 50% with BT-549.
